Results from PMC5007466, “VCP recruitment to mitochondria causes mitophagy impairment and neurodegeneration in models of Huntington's disease” (Nature Communications, 2016).

Key:
[1] = test system: VCP/Htt interaction (GST-VCP with full-length Htt of mouse brain lysate); test: GST pull-down of VCP/Htt interaction; type: binding; settings: GST-VCP + total mouse brain lysate, 3 µM peptide, 16 h, n = 3
Experimental: Bacteria-expressed GST or GST–VCP, or GST–VCP truncated mutants were immobilized on glutathione-Sepharose 4B beads (GE Healthcare) for three hours and then washed three times. Beads were incubated with total lysates of mouse brains overnight at 4 °C. Beads were then washed with a GST binding buffer (100 mM NaCl, 50 mM NaF, 2 mM EDTA, 1% Triton-X-100 and protease inhibitor cocktail) and were analysed by SDS–PAGE and IB.
Supplementary Figure 4: Rational design of a peptide inhibitor to block VCP/Htt interaction. (a) GST or GST-VCP was incubated with total lysates of mouse brain and the indicated peptides ( 3 µM) for 16 hours, followed by immunoblotting with anti-Htt antibodies. Representative blots are from three independent experiments. Quantitation of VCP/Htt binding was shown below the blot as the m ean of three independent experiments. Data are mean ± SEM. *, p<0.05 vs. T AT -treated group (Paired Student’s t test). (b) HEK293 cells were co-expressed with GFP-VCP and Myc-73Q FL plasmids as indicated. After 48 hours incubation with the indicated peptides ( 3 µM/day, each), immunoprecipitation analysis was performed. The shown blots are from three independent experiments. (c) HEK293 cells were co-expressed with GFP-VCP and Myc-73Q FL plasmids as indicated. […] The blots of the bindings of mtHtt/VCP were quantitated with NIH Image J software. The IC50 was calculated. […]

[2] = test system: HD patient-iPS cell derived neurons; test: Mitochondrial length along neurites; type: cell-based, human; settings: 1 μM per day for 5 days
Experimental: iPS cells from a normal subject and a HD patient (carrying 41 CAG repeats) were differentiated into neurons using the protocol from our previous studies. Briefly, iPS cells were plated onto 6-well plates precoated with 2.5% Matrigel and allowed to reach 90% confluence in feeder-free medium. For the first 10 days, cells were treated with SB431542 (10 μM; Tocris Bioscience) and Noggin (100 ng/ml) in Neural Media (NM) containing Neurobasal and DMEM (1:1), B27 supplement minus vitamin A (50 × , Invitrogen), N2 supplement (100 × , Invitrogen), GlutaMax (Invitrogen, 100 × ), FGF2 ([…]) and EGF ([…]), 100 units per ml penicillin and 100 μg ml^−1 streptomycin). For the next 10 days, cells were treated with human recombinant Sonic hedgehog (SHH, 200 ng/ml), DKK1 (100 ng/ml) and BDNF (20 ng/ml) and 10 μM Y27632 (Sigma) in neuronal differentiation medium containing Neurobasal and DMEM (1:3), B27, N2, GlutaMax and PS. […]
In patient-iPS cell-derived neurons, to ensure the observation of mitochondria in the medium spiny neurons, the cells were stained with a mitochondrial marker (anti-TOM20, 1:500) and markers for medium spiny neurons (DARPP-32, 1:200, Epitomics). The quantitation of neurite length was conducted only in the neurons immunopositive for both DARPP-32 and Tuj1 (neuron-specific class III beta-tubulin, 1:5,000, Covance). At least 50 neurons/group were counted.

[3] = test system: HD patient-iPS cell derived neurons; test: LDH release after BDNF withdrawal; type: cell-based, human; settings: 1 μM per day for 5 days, BDNF withdrawal 24 h
Experimental: Figure 4 HV-3 treatment reduces mitochondrial damage and cell death in HD cell cultures. Mouse HdhQ7 and HdhQ111 striatal cells were treated with control peptide TAT or peptide HV-3 (3 uM/day for 3 days). (a) Left panel: Mitochondrial membrane potential (MMP) was determined by TMRM fluorescent dye. Right panel: HdhQ111 cells were transfected with control siRNA (siCon) and VCP siRNA (siVCP) for three days. The MMP was determined by TMRM in HdhQ111 cells treated with TAT or HV-3. (b) Mitochondrial morphology was determined by staining cells with anti-Tom20 antibody. Scale bar: 10 μm. The percentage of cells with fragmented mitochondria relative to the total number of cells was quantitated. At least 100 cells per group were counted. (c) Mitochondrial morphology was determined by EM. The length of mitochondria and the number of mitophagosomes were quantitated. At least 90 mitochondria per group were counted. […] HMGB1 release into culture medium was determined by IB analysis with anti-HMGB1 antibody. […] Cell death was determined by the release of LDH. […] (g) Quantitation of neurite length of medium spiny neurons. At least 50 neurons per group were counted by an observer blind to experimental conditions. (h) Left: the MMP was determined by TMRM fluorescent dye. […] Mitochondrial length along neurites of DARPP32/Tuj1-positive neurons was quantitated. […]

## CSCC[C@H](NC(=O)[C@@H](NC(=O)[C@H](CC(C)C)NC(=O)[C@@H](NC(=O)[C@H](Cc1c[nH]cn1)NC(=O)CCCCCNC(=O)[C@H](CCCNC(=N)N)NC(=O)[C@H](CCCNC(=N)N)NC(=O)[C@H](CCCNC(=N)N)NC(=O)[C@H](CCC(N)=O)NC(=O)[C@H](CCCNC(=N)N)NC(=O)[C@H](CCCNC(=N)N)NC(=O)[C@H](CCCCN)NC(=O)[C@H](CCCCN)NC(=O)[C@H](CCCNC(=N)N)NC(=O)CNC(=O)[C@@H](N)Cc1ccc(O)cc1)C(C)C)C(C)C)C(=O)N[C@@H](CS)C(=O)N[C@@H](C)C(=O)N[C@H](C(N)=O)[C@@H](C)O [HV-3]
[1]
  block of VCP/Htt interaction: only the addition of peptide HV-3 blocks the interaction of VCP/Htt
[2]
  mitochondrial length along neurites: improved MMP and mitochondrial length along neurites
[3]
  neuronal cell death: suppressed neuronal cell death
